Test results taken from US20210283211A1, “COMPOSITIONS AND METHODS OF ALLEVIATING RESISTANCE TO CHEMOTHERAPY” (CITY OF HOPE, priority 2019, published 2021).
“Also recorded” adds a separate entry of the source.

Tests used:
H358 cells = test: Cell-based rescreen of top virtual-screen hits, IC50 determination; settings: Homo sapiens, NCI-H358, 0.1 μM to 10 μM, 72 hours
Method: Cell viability assay: Cell Counting Kit-8 (CCK-8) was purchased from Dojindo Molecular Technologies (Rockville, Md., USA). Cells were seeded on a 96-well plate and allowed to adhere in complete medium for 24 hours. Test compounds were added to 100 μl of medium at the indicated concentrations for 72 hours. Ten μl of the CCK-8 reagent were added to each well and absorbance at 450 nm was measured using a Tecan Spark 10M multimode microplate reader.
A virtual screen of a library of 1440 FDA-approved drugs using binding pockets in the N-terminal domain of PXN (FIG. 9H) identified several putative hits. The top 40 hits were then rescreened employing a cell-based assay to determine their efficacy using H358 cells.

[1] = tested on: ITGB4 and PXN expression, γH2AX in H358 cells; test: Immunoblot after sublethal dose; type: cell-based, human; settings: 72 hours
Method: West blotting: Cell lysates were prepared with 1×RIPA buffer (MilliporeSigma) and denatured in 1× reducing sample buffer at 95° C. for 5 minutes. Protein samples (15 μg) were run on 4-15% TGX gels (Bio-Rad, Hercules, Calif., USA) and transferred onto nitrocellulose membranes (Bio-Rad). Blots were blocked with 5% non-fat milk in TBS-T for 1 hour at room temperature and probed with primary antibody diluted in 2.5% BSA in TBS-T overnight at 4° C. After three washes with TBS-T, blots were incubated with HRP-conjugated secondary antibodies for 2 hours at room temperature. After three more washes, bands of interest were visualized via chemiluminescence using Western Bright ECL HRP substrate (Advansta, Menlo Park, Calif., USA) and imaged with the ChemiDoc MP imager (Bio-Rad).
Then a sublethal dose was used to determine the effect of these compounds on ITGB4 and PXN expression and caspase activity (FIG. 9I). […] These eleven compounds were further screened in the cisplatin-resistant cell line H2009. […] Further, carfilzomib was tested in another cisplatin-resistant cell line H1993.

H2009 cells [2] = test: Scratch wound healing assay; type: cell-based, human; settings: for cell migration / wound healing: sublethal dose (carfilzomib 50-200 nM)
Method: (§1) Scratch wound healing assay. Cells were seeded on a 96-well Image Lock (Essen BioScience, Ann Arbor, Mich., USA) plate to reach 90% confluence by the next day. After cell adherence, 96 uniform wounds were created simultaneously using the WoundMaker (Essen BioScience) tool. Cells were washed once with serum-free medium and replenished with complete medium. To monitor wound healing, the plate was placed in the IncuCyte S3 Live-Cell Analysis System (Essen BioScience) and images were acquired every hour. Data analysis was generated by the IncuCyte software using a set confluence mask to measure relative wound density over time.
(§2) To discern the effect of knocking down ITGB4 on cell migration, H1993 and H2009 cells were transfected with the control or ITGB4-specific siRNA in 6-well plates and 12 hours post transfection, the cells were trypsinized and reseeded at high density in a 96-well plate. […] While both cell lines transfected with the control siRNA achieved 100% confluency of the wound within 48 hours, H1993 and 2009 cells in which ITGB4 was knocked down reached ˜60% and ˜80% confluency, respectively; neither cell line reached 100% confluency even after 96 h (FIG. 3F). Next the rate of wound closure was estimated. The rate was determined by dividing initial wound width by the time taken to close the wound. […] Similarly, in the case of the H2009 cells, the wound width closure rate dropped from 22 μm/h to about 18 μm/h (FIG. 3G). […] Additionally, up regulation of expression of other integrin β forms in response to ITGB4 knockdown was checked and an increase in the expression of ITGB1, ITGB2, and ITGB3 at mRNA level was found (FIG. 3I). The effect of ITGB3 silencing in the ITGB4 knocked down cells was further tested but no significant difference in their proliferation was found (FIG. 3J).

H1993 cells [3] = test: IncuCyte cell proliferation and caspase-3/7 apoptosis assay; type: cell-based, human; settings: for inhibition of cell proliferation: siRNA knockdown
Method: (§3) Cell proliferation and apoptosis assay. Cell proliferation assays were performed using cell lines stably transfected with NucLight Red Lentivirus (Essen Bioscience) to accurately visualize and count the nucleus of a single cell. Cells were seeded on a 96-well plate and allowed to adhere for 24 hours. Test compounds were added at indicated concentrations. Caspase-3/7 Green Apoptosis Reagent (Essen Bioscience) was also added as a green fluorescent indicator of caspase-3/7-mediated apoptotic activity. To monitor cell proliferation and apoptosis over time, the plate was placed in the IncuCyte S3 Live-Cell Analysis System (Essen BioScience) and images were acquired every 2 hours. Data analysis was generated by the IncuCyte software using a red fluorescence mask to accurately count each cell nucleus and a green fluorescence mask to measure apoptosis over time.
(§4) To determine whether the inhibition in cell proliferation associated with ITGB4 knockdown was due to enhanced apoptosis or reduced cell division (cytostatic), the Essen Bioscience Caspase-3/7 Green apoptosis assay in live cells was conducted. The NucView™[…], a DNA intercalating dye was used to enable quantification of apoptosis over time. The dye is impermeable and non-toxic to cells but once the cell membrane is permeabilized by caspase-3/7, the dye enters the cell and gets activated due to change in pH leading to the generation of green fluorescence that is then detected in real time and quantified using the IncuCyte System (FIG. 4B).
To address this, H1993 and H2009 cells were treated with cisplatin for 3 days and the changes were analyzed by immunoblotting. […] Next, H1993 and H2009 cells were transiently transfected with ITGB4 siRNA and 24 hours post-transfection they were treated with 10 μM cisplatin and cell proliferation and caspase activity were determined. […] However, in response to cisplatin in ITGB4 knockdown cells, the fold change dipped to <1, alluding to a cytotoxic effect (FIG. 4C). […] However, cell death was not due to caspase activation but appeared to be due to cell bursting which is seen in anoikis (FIGS. 3K and 3L). […]

H2009 cells [4] = test: as above; type: cell-based, human
Method: as §3, §4
To address this, H1993 and H2009 cells were treated with cisplatin for 3 days and the changes were analyzed by immunoblotting. […] Next, H1993 and H2009 cells were transiently transfected with ITGB4 siRNA and 24 hours post-transfection they were treated with 10 μM cisplatin and cell proliferation and caspase activity were determined. […] However, in response to cisplatin in ITGB4 knockdown cells, the fold change dipped to <1, alluding to a cytotoxic effect (FIG. 4C). […] However, cell death was not due to caspase activation but appeared to be due to cell bursting which is seen in anoikis (FIGS. 3K and 3L).

H1993 cells [5] = test: Scratch wound healing assay; type: cell-based, human; settings: ITGB4 knockdown
Method: as §1, §2

CN(C)C/C=C/C(=O)Nc1cc2c(Nc3ccc(F)c(Cl)c3)ncnc2cc1O[C@H]1CCOC1 [Afatinib]
IC50 (H358 cells): 9 nM

C#Cc1cccc(Nc2ncnc3cc(OC)c(OCCCCCCC(=O)NO)cc23)c1 [CUDC-101]
apoptosis, DNA damage (γH2AX) and ITGB4 expression [1]: induced apoptosis and caused DNA damage
IC50 (H358 cells): 501 nM
cell migration / wound healing (H2009 cells [2]): less effective than carfilzomib in inhibiting wound healing; also recorded: did not

CCS(=O)(=O)N1CCN(c2ccc(Nc3ncc(C(N)=O)c(NC4CC4)n3)cc2)CC1 [Cerdulatinib]
IC50 (H358 cells): 1540 nM

COc1cc2ncnc(Nc3ccc(F)c(Cl)c3)c2cc1NC(=O)/C=C/CN1CCCCC1 [Dacomitinib]
IC50 (H358 cells): 60 nM

Cc1nc(Nc2ncc(C(=O)Nc3c(C)cccc3Cl)s2)cc(N2CCN(CCO)CC2)n1 [Dasatinib]
IC50 (H358 cells): 1 nM

CC(C)C[C@H](NC(=O)CNC(=O)c1cc(Cl)ccc1Cl)B(O)O [Ixazomib]
apoptosis, DNA damage (γH2AX) and ITGB4 expression [1]: induced apoptosis and caused DNA damage
IC50 (H358 cells): 303 nM
cell migration / wound healing (H2009 cells [2]): less effective than carfilzomib in inhibiting wound healing; also recorded: impeded cell migration

Cc1cnc(-c2ccccc2C(C)C)nc1NCc1ccc(-n2ccnn2)cc1 [ML323]
cell proliferation rates (H1993 cells [3]; 5 μM and 10 μM, 3 days): no significant change
cell proliferation rates (H2009 cells [4]; 5 μM and 10 μM, 3 days): no significant change

C=CC(=O)Nc1cc(Nc2nccc(-c3cn(C)c4ccccc34)n2)c(OC)cc1N(C)CCN(C)C [Osimertinib]
IC50 (H358 cells): 358 nM

C1=C/COCc2cc(ccc2OCCN2CCCC2)Nc2nccc(n2)-c2cccc(c2)COC/1 [Pacritinib]
IC50 (H358 cells): 171 nM

C=CC(=O)N1CCC(Oc2cc3c(Nc4ccc(Cl)c(Cl)c4F)ncnc3cc2OC)CC1 [Poziotinib]
IC50 (H358 cells): 60 nM

Cc1cc(Nc2cc(N3CCN(C)CC3)nc(Sc3ccc(NC(=O)C4CC4)cc3)n2)[nH]n1 [Tozasertib]
IC50 (H358 cells): 0.9 nM

ACAACACUCAGAAUCUAAAUUGGAC (SEQ ID NO: 13) (listed as RNA, chemistry not given here) [VDAC1 siRNA, siRNA against VDAC1]
increase in apoptosis (H2009 cells [4]; VDAC1 knockdown, 120 hours): 2 fold
decrease in cell proliferation (H2009 cells [4]; VDAC1 knockdown, by 72 hours): 50%

GCUUCGCUGUCGGAUUUCATT (SEQ ID NO: 6) (chemistry not given here) [PXN siRNA, siRNA against PXN, Life Technologies Cat 4392421]
inhibition of cell proliferation (H1993 cells [3]): 15%

GGAGCACAAAGCCAACUAACGARCA (SEQ ID NO: 11) (listed as RNA, chemistry not given here) [USP1 siRNA, siRNA against USP1, construct B, OriGene SR305052B]
inhibition of cell proliferation (H2009 cells [4]; USP1 knockdown, by 72 hours of seeding): > 2 fold

GUCAGUUCUGCGAGUAUGACAACTT (SEQ ID NO: 9) (chemistry not given here) [ITGB4 siRNA, siRNA against ITGB4, construct C, OriGene SR302473C]
fold change in cell count (H1993 cells [3]; ITGB4 knockdown or 10 μM cisplatin alone, cytostatic): ~1 fold
fold change in cell count (H1993 cells [3]; ITGB4 knockdown plus 10 μM cisplatin, cytotoxic): < 1 fold
increase in caspase activity compared to control (H1993 cells [3]; ITGB4 knockdown, by 24 hours): 5- to 6 fold
increase in caspase activity compared to control (H1993 cells [3]; ITGB4 knockdown, by 72 hours): 20 fold
increase in cell count (H1993 cells [3]; ITGB4 knockdown, by 72 hours): 0.2 fold
estimated doubling time (H1993 cells [3]; ITGB4 knockdown, control 72 hours): approximately 120 hours
drop in the fold change of cell count (H1993 cells [3]; knockdown plus cisplatin, compared to scramble siRNA cells treated with cisplatin): 40%
inhibition of cell proliferation (H1993 cells [3]): 50%
doubling time (H2009 cells [4]; ITGB4 knockdown, control approximately 25 hours): 40 h
wound confluency (H1993 cells [5]; control siRNA 100% within 48 hours): ~60%
wound closure rate (H1993 cells [5]; control ~25 μm/h): < 10 μm/h
wound width closure rate (H2009 cells [2]; ITGB4 knockdown, control 22 μm/h): about 18 μm/h
wound confluency (H2009 cells [2]; ITGB4 knockdown, control siRNA 100% within 48 hours): ~80%
